Laboratory results taken from patent publication US6291640A, “Peptidomimetic inhibitors of the human cytomegalovirus protease” (Boehringer Ingelheim Ltd., priority 1998, dated 2001).
Starred links: 1 amine or outer side, 2 acyl side, 3 side chain; linkers in the order of their positions; H or OH if unused. Non-standard residues stand in square brackets, D forms with d. Residues, ends and D or L forms follow the SMILES beside them. ξ: configuration not given here. *: point of attachment. ξ3Amino2oxobutanoyl = CC(N[*:1])C(=O)C(=O)[*:2]; NHBn = c1ccc(CN*)cc1; ξNva = CCCC(N)C(=O)O; CF3 = FC(F)(F)*

These compounds were tested against T1, HCMV No protease (Human cytomegalovirus, UniProt P16753) (assay: biochemical). Details: not given.
T1 construct: at a position located near the center of the precursor (R-site) to excise the catalytic domain (No)
T1 sequence (P16753 1-256): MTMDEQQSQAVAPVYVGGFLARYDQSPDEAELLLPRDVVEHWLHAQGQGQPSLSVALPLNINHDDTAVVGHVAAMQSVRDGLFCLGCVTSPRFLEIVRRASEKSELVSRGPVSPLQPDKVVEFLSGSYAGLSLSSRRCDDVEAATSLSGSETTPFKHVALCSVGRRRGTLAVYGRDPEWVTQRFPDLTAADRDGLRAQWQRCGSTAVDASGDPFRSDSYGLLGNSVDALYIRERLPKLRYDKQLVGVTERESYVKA
Experimental: HCMV No protease assay: HCMV No protease was assayed with an internally quenched fluorogenic substrate based on the maturation cleavage site (Abz-[…](3-NO2)R-OH, kcat /KM =260 M^-1 s^-1) . […] A protocol adaptable to a 96-well plate format was designed for the determination of IC50 values of inhibitors. […] After this period, enzymatic hydrolysis was initiated by addition of the fluorogenic substrate and the reaction was performed for 2 hr at 30° C. […] No quenching was required before fluorescence measurement since the total scanning time by the plate reader accessory was brief relative to the duration of the reaction. The incubation buffer (essentially similar to the pre-incubation buffer) contained 50 mM Tris/HCl pH 8, 0.5M Na2 SO4, 50 mM NaCl, 0.1 mM EDTA, 1 mM TCEP, 3% v/v DMSO and 0.05% w/v Casein. The final concentrations of HCMV N, protease (expressed in terms of total monomer concentration) and substrate were 100 nM and 5 μM respectively. IC50 values were obtained through fitting of the inhibition curve to a competitive inhibition model using SAS NLIN procedure. The mode of inhibition was determined by measurements of the initial rates (in cuvettes) at various substrate (Abz-Tbg-Tbg-Asn(Me)2 -Ala-SSRLY(3-NO2)R-OH) and inhibitor concentrations using the same conditions as above.
Compound `CC(NC(=O)[C@H](CC(=O)N(C)C)NC(=O)[C@@H](NC(=O)CC(C)(C)C)C(C)(C)C)P(=O)(Oc1ccccc1)Oc1ccccc1` (stereo partly drawn) [Compound 79, Diphenyl N4 ,N4-dimethyl-N1-(1-aminoethylphosphinate)-(2S)-2-{[(1S)-2,2-dirmethyl-1-(neopentylcarboxamido)propyl]carboxamido}butanediamide] has an IC50 of 0.66 ± 0.06 µM.

Same assay, conditions: IC50 (μM)
`CC(=O)N[C@@H](CO)C(=O)N[C@@H](Cc1ccc(O)cc1)C(=O)N[C@H](C(=O)N[C@@H](CCCCN)C(=O)NC(C)C(=O)C(=O)NCc1ccccc1)C(C)C` (stereo partly drawn) [Compound 218, Ac-Ser-Tyr-Val-Lys-Ala(d,l)-C(O)-NH-CH2 -Ph] (Ac-SYVK[ξ3Amino2oxobutanoyl]-NHBn) gave an IC50 of 9.4 µM.

Same assay, conditions: inhibitor pre-incubated 5 hr at 30° C. with enzyme, fluorogenic substrate; read-out: IC50
`CC(NC(=O)[C@H](CCC(=O)N(C)C)NC(=O)[C@@H](NC(=O)CC(C)(C)C)C(C)(C)C)C(=O)C(F)(F)C(F)(F)F` (some centres unmarked) [Compound 307] showed an IC50 of 2 µM. With `CC(NC(=O)[C@@H](CC(=O)[C@@H](NC(=O)CC(C)(C)C)C(C)(C)C)CC(=O)C(C)(C)C)C(=O)C(F)(F)F` (some centres unmarked) [Compound 311] the IC50 was 6.8 µM. `CC[C@@H](NC(=O)C(=O)C(C)NC(=O)[C@H](CC(=O)N(C)C)NC(=O)[C@@H](NC(=O)[C@@H](NC(=O)CCCCCN)C(C)(C)C)C(C)(C)C)c1ccccc1` (some centres unmarked) [Compound 97] gave an IC50 of 0.073 µM. In the case of `CC[C@@H](NC(=O)C(=O)C(C)NC(=O)[C@H](CC(=O)N(C)CCc1ccccn1)NC(=O)[C@@H](NC(=O)CC(C)(C)C)C(C)(C)C)c1ccccc1` (some centres unmarked) [Compound 309], the IC50 is reported as 0.12 µM. With `C[C@H](NC(=O)[C@H](CC(=O)N1CCCC1)NC(=O)[C@@H](NC(=O)CC(C)(C)C)C(C)(C)C)C(=O)c1nc2ccccc2o1` [Compound 304] the IC50 was 0.5 µM. `CC(NC(=O)[C@@H](CC(=O)C(NC(=O)CC(C)(C)C)C(C)(C)C)CC(=O)N(C)C)C(=O)C(F)(F)C(F)(F)F` (mixture of isomers) [Compound 312, N^4,N^4 -Dimethyl-N^1-[1-(R/ S)-methyl-2-oxo-3,3,4,4,4-pentafluorobutyl]-(2S)-2-{3-[(3,3-dimethyl-1-oxobutyl)-amino]-4,4-dimethyl-2-oxopentyl}-butanediamide] gave an IC50 of 5.8 µM. `Cc1ccc2nc(C(=O)C(C)NC(=O)[C@H](CC(=O)N(C)C)NC(=O)[C@@H](NC(=O)CC(C)(C)C)C(C)(C)C)oc2c1` (stereo partly drawn) [Compound 82, N4,N4-dimethyl-N1-[1-methyl-2-(6-methyl-1,3-benzoxazol-2-yl)-2-oxoethyl]-(2S)-2-{[(1S)-2,2-dimethyl-1-(neopentylcarboxamido)propyl]carboxamido}butanediamide] gave an IC50 of 0.6 ± 0.1 µM. `CC(NC(=O)[C@H](CC(=O)N(C)C)NC(=O)[C@@H](NC(=O)[C@@H](NC(=O)OC(C)(C)C)C(C)C)C(C)C)C(=O)C(=O)NC1CCCCC1` (some centres unmarked) [Compound 411] gave an IC50 of 1.8 µM. `CC[C@@H](NC(=O)C(=O)C(C)NC(=O)[C@H](CS(N)(=O)=O)NC(=O)[C@@H](NC(=O)CC(C)(C)C)C(C)(C)C)c1ccccc1` (some centres unmarked) [Compound 310] showed an IC50 of 0.97 µM. With `CC(NC(=O)[C@H](CC(=O)N(C)C)NC(=O)[C@@H](NC(=O)[C@@H](NC(=O)OC(C)(C)C)C(C)C)C(C)C)C(=O)C(=O)Nc1ccccc1` (some centres unmarked) [Compound 410] the IC50 was 1.5 µM. In the case of `C=CCOC(=O)OCCNC(=O)C(=O)C(C)NC(=O)[C@H](CC(=O)N(C)C)NC(=O)[C@@H](NC(=O)CC(C)(C)C)C(C)(C)C` (some centres unmarked) [Compound 401], the IC50 is reported as 0.59 µM. `CC(NC(=O)[C@H](CC(=O)N(C)C)NC(=O)[C@@H](NC(=O)[C@@H](NC(=O)OC(C)(C)C)C(C)C)C(C)C)C(=O)C(=O)NCCc1ccccc1` (some centres unmarked) [Compound 412] showed an IC50 of 0.85 µM. `CC(NC(=O)[C@H](CC(=O)N(C)C)NC(=O)[C@@H](NC(=O)[C@@H](NC(=O)OC(C)(C)C)C(C)C)C(C)C)C(=O)C(=O)Nc1cccc(C(N)=O)c1` (some centres unmarked) [Compound 414] showed an IC50 of 1.6 µM. In the case of `CC(NC(=O)[C@H](CC(=O)N(C)C)NC(=O)[C@@H](NC(=O)[C@@H](NC(=O)OC(C)(C)C)C(C)C)C(C)C)C(=O)C(=O)NCC(C)(C)C` (some centres unmarked) [Compound 402], the IC50 is reported as 4.3 µM. `CC(NC(=O)[C@H](CC(=O)N(C)C)NC(=O)[C@@H](NC(=O)CC(C)(C)C)C(C)(C)C)C(=O)C(=O)NC[C@@H](C)c1ccccc1` (some centres unmarked) [Compound 408] gave an IC50 of 0.2 µM. Work on `CCCCC[C@@H](C)NC(=O)C(=O)C(C)NC(=O)[C@H](CC(=O)N(C)C)NC(=O)[C@@H](NC(=O)CC(C)(C)C)C(C)(C)C` (some centres unmarked) [Compound 406] yielded an IC50 of 0.8 µM. With `CC(NC(=O)[C@H](CC(=O)N(C)C)NC(=O)[C@@H](NC(=O)CC(C)(C)C)C(C)(C)C)C(=O)C(=O)N[C@H](C)c1cccc2ccccc12` (some centres unmarked) [Compound 407] the IC50 was 0.2 µM. `CC(NC(=O)[C@H](CC(=O)N1CCOCC1)NC(=O)[C@@H](NC(=O)CC(C)(C)C)C(C)(C)C)C(=O)C(F)(F)C(F)(F)F` (some centres unmarked) [Compound 308] showed an IC50 of 0.3 µM. For `CC(NC(=O)[C@H](CC(=O)N1CCCC1)NC(=O)[C@@H](NC(=O)CC(C)(C)C)C(C)(C)C)C(=O)C(=O)NCCOCc1ccccc1` (some centres unmarked) [Compound 305], the IC50 was 0.3 µM. With `CC[C@@H](NC(=O)C(=O)C(C)NC(=O)[C@H](CC(=O)N(C)C)NC(=O)[C@@H](NC(=O)[C@@H](NC(=O)CCCCCNC(=O)OC(C)(C)C)C(C)(C)C)C(C)(C)C)c1ccccc1` (some centres unmarked) [Compound 96] the IC50 was 0.057 µM. In the case of `CC(NC(=O)[C@H](CC(=O)N1CCCC1)NC(=O)[C@@H](NC(=O)CC(C)(C)C)C(C)(C)C)C(=O)C(=O)NCc1ccc(I)cc1` (some centres unmarked) [Compound 98], the IC50 is reported as 0.34 µM. `CC(NC(=O)[C@H](CC(=O)N(C)C)NC(=O)[C@@H](NC(=O)[C@@H](NC(=O)OC(C)(C)C)C(C)C)C(C)C)C(=O)C(=O)NCC1CCCCC1` (some centres unmarked) [Compound 413] was tested, and the IC50 was 4.4 µM. In the case of `Cc1ccc(NC(=O)C(=O)C(C)NC(=O)[C@H](CC(=O)N(C)C)NC(=O)[C@@H](NC(=O)[C@@H](NC(=O)OC(C)(C)C)C(C)C)C(C)C)cc1` (some centres unmarked) [Compound 409], the IC50 is reported as 1.4 µM. For `CC(NC(=O)[C@H](CC(=O)NC(C)(C)C)NC(=O)[C@@H](NC(=O)CC(C)(C)C)C(C)(C)C)C(=O)C(F)(F)C(F)(F)F` (some centres unmarked) [Compound 306], the IC50 was 0.5 µM. Compound `CC(NC(=O)[C@H](CC(=O)N(C)C)NC(=O)[C@@H](NC(=O)[C@@H](N)C(C)C)C(C)C)C(=O)C(=O)NCc1ccc(C(F)(F)F)cc1` (some centres unmarked) [Compound 404] has an IC50 of 1.7 µM. `CC(NC(=O)[C@H](CC(=O)N(C)C)NC(=O)[C@@H](NC(=O)CC(C)(C)C)C(C)(C)C)C(=O)C(=O)NCc1ccc(C(=O)N2CCOCC2)cc1` (some centres unmarked) [Compound 405] gave an IC50 of 0.5 µM. `CCCC(NC(=O)[C@H](CC(N)=O)NC(=O)[C@@H](NC(=O)[C@@H](NC(C)=O)C(C)C)C(C)C)C(=O)C(F)(F)F` (some centres unmarked) [Compound 45] (Ac-VVN[ξNva]-CF3) showed an IC50 greater than 300 µM.

Same assay, conditions: relative to compound 96
In the case of `CC[C@@H](NC(=O)C(=O)C(C)NC(=O)[C@H](CC(=O)N(C)C)NC(=O)[C@@H](NC(=O)[C@@H](NC(=O)CCCCCN)C(C)(C)C)C(C)(C)C)c1ccccc1` (some centres unmarked) [Compound 97], the “improvement of potency (factor) on removal of the Boc group” value is reported as 2.

Same assay, conditions: text of b731; read-out: IC50 value / potency
With `CC[C@@H](NC(=O)C(=O)C(C)NC(=O)[C@H](CC(=O)N(C)C)NC(=O)[C@@H](NC(=O)[C@@H](NC(=O)CCCCCN)C(C)(C)C)C(C)(C)C)c1ccccc1` (some centres unmarked) [Compound 97] the IC50 was less than 0.04 µM. Compound `CC[C@@H](NC(=O)C(=O)C(C)NC(=O)[C@H](CC(=O)N(C)C)NC(=O)[C@@H](NC(=O)[C@@H](NC(=O)CCCCCNC(=O)OC(C)(C)C)C(C)(C)C)C(C)(C)C)c1ccccc1` (some centres unmarked) [Compound 96] has an IC50 of 0.075 µM.

The compounds below were run against T2, porcine pancreatic elastase (PPE) (Sus scrofa, UniProt P00772) (assay: Specificity assay, porcine pancreatic elastase). Details: not given.
T2 construct: porcine pancreas elastase #1027891 lot 83260521-23; purchased Boehringer Mannheim #1027891
T2 sequence (P00772 27-266): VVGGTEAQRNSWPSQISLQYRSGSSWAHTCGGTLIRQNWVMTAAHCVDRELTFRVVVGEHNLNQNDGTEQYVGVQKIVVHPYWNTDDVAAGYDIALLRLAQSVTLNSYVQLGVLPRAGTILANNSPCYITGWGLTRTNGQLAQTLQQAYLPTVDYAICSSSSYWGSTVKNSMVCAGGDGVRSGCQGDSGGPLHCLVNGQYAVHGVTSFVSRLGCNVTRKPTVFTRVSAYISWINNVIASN
Type: biochemical
Experimental: The specificity of the compounds was determined against a variety of serine proteases (Human leukocyte and porcine pancreatic elastases (HLE & PPE), bovine pancreas α-chymotrypsin) and one cysteine protease (Human liver cathepsin B). In all cases a 96-well plate format protocol using a calorimetric p-nitroanilide (pNA) substrate specific for each enzyme was used. Each assay included a 1 hr pre-incubation enzyme-inhibitor at 30° C. followed by addition of substrate and hydrolysis to ≈30% conversion as measured by scanning on a UV Thermomax microplate reader. Substrate concentrations were kept as low as possible compared to KM to reduce substrate competition. […] The final conditions for each assay were as followed: 50 mM Tris/HCl pH 8, 0.5 M Na2 SO4, 50 mM NaCl, 0.1 mM EDTA, 3% DMSO, 0.01% Tween-20 with [100 μM Succ-AAPF-pNA and 250 pM α-chymotrypsin], [133 μM Succ-AAA-pNA and 8 nM porcine elastase], or [133 μM Succ-AAV-pNA and 8 nM leukocyte elastase]. 100 mM NaH2 PO4 pH 6, 0.1 mM EDTA, 3% DMSO, 1 mM TCEP, 0.01% Tween-20, 30 μM Z-FR-pNA and 5 nM cathepsin B (the stock enzyme was activated in buffer containing 20 mM TCEP before use).
In the case of `CC(NC(=O)[C@H](CC(=O)N(C)C)NC(=O)[C@@H](NC(=O)CC(C)(C)C)C(C)(C)C)C(=O)c1nc2ncccc2o1` (stereo partly drawn) [Compound 81, N4,N4-dimethyl-N1-(1-methyl-2-[1,3]oxazolo[4,5-b]pyridin-2-yl-2-oxoethyl)-(2S)-2-{[(1S)-2,2-dimethyl-1-(neopentylcarboxamido)propyl]carboxamido} butanediamide], the “inhibition of PPE” value is reported as “not an inhibitor of PPE”. In the case of `CC(NC(=O)[C@H](CC(=O)N(C)C)NC(=O)[C@@H](NC(=O)CC(C)(C)C)C(C)(C)C)C(=O)c1nc2ccccc2o1` (stereo partly drawn) [Compound 77, N1-[2-(1,3-benzoxazol-2-yl)-1-methyl-2-oxoethyl]-N4,N4-dimethyl-(2S)-2-{[(1S)-2,2-dimethyl-1-(neopentylcarboxamido)propyl]carboxamido}butanediamide], the “potency against PPE relative to HCMV protease” value is reported as “seven fold more potent against PPE than against HCMV protease”.

Same assay, conditions: 1 hr pre-incubation at 30° C., Succ-AAA-pNA; read-out: IC50 against PPE
`CC(NC(=O)[C@H](CC(=O)N(C)C)NC(=O)[C@@H](NC(=O)CC(C)(C)C)C(C)(C)C)C(=O)c1nc2ccccc2s1` (stereo partly drawn) [Compound 80, N1-[2-(1,3-benzothiazol-2-yl)-1-methyl-2-oxoethyl]-N4,N4-dimethyl-(2S)-2-{[(1S)-2,2-di-methyl-1-(neopentylcarboxamido)propyl]carboxamido}butanediamide] showed an IC50 of 9000 nM.
